Measured values: ChEMBL document CHEMBL3045319, “Synthesis, antitumor activity, and structureactivity relationship of some 4H-pyrano[3,2-h]quinoline and 7H-pyrimido[4,5:6,5]pyrano[3,2-h]quinoline derivatives” (Med Chem Res, 2013)
Converted amounts (≈) assume the structure as drawn.

Key:
[1] = test system: HepG2; assay: Cytotoxicity against Homo sapiens (human) HepG2 cells after 48 hr by MTT assay; type: functional, cell-based
[2] = test system: HepG2; assay: Cytotoxicity against Homo sapiens (human) HepG2 cells assessed as cell viability at 1.56 ug/ml after 48 hr by MTT assay relative to control; type: functional; conditions: HepG2, 48 h, read-out: Activity
[3] = test system: HepG2; assay: Cytotoxicity against Homo sapiens (human) HepG2 cells assessed as cell viability at 3.125 ug/ml after 48 hr by MTT assay relative to control; type: functional; conditions: HepG2, 48 h, read-out: Activity
[4] = test system: HepG2; assay: Cytotoxicity against Homo sapiens (human) HepG2 cells assessed as cell viability at 6.25 ug/ml after 48 hr by MTT assay relative to control; type: functional; conditions: HepG2, 48 h, read-out: Activity
[5] = test system: HepG2; assay: Cytotoxicity against Homo sapiens (human) HepG2 cells assessed as cell viability at 12.5 ug/ml after 48 hr by MTT assay relative to control; type: functional; conditions: HepG2, 48 h, read-out: Activity
[6] = test system: HepG2; assay: Cytotoxicity against Homo sapiens (human) HepG2 cells assessed as cell viability at 25 ug/ml after 48 hr by MTT assay relative to control; type: functional; conditions: HepG2, 48 h, read-out: Activity
[7] = test system: HepG2; assay: Cytotoxicity against Homo sapiens (human) HepG2 cells assessed as cell viability at 50 ug/ml after 48 hr by MTT assay relative to control; type: functional; conditions: HepG2, 48 h, read-out: Activity
[8] = Cytotoxicity against Homo sapiens (human) HCT cells after 48 hr by MTT assay; type: functional, cell-based
[9] = Cytotoxicity against Homo sapiens (human) HCT cells assessed as cell viability at 1.56 ug/ml after 48 hr by MTT assay relative to control; type: functional; conditions: read-out: Activity
[10] = Cytotoxicity against Homo sapiens (human) HCT cells assessed as cell viability at 6.25 ug/ml after 48 hr by MTT assay relative to control; type: functional; conditions: read-out: Activity
[11] = test system: MCF7; assay: Cytotoxicity against Homo sapiens (human) MCF7 cells assessed as cell viability at 1.56 ug/ml after 48 hr by MTT assay relative to control; type: functional; conditions: MCF7, 48 h, read-out: Activity
[12] = test system: MCF7; assay: Cytotoxicity against Homo sapiens (human) MCF7 cells assessed as cell viability at 3.125 ug/ml after 48 hr by MTT assay relative to control; type: functional; conditions: MCF7, 48 h, read-out: Activity
[13] = test system: MCF7; assay: Cytotoxicity against Homo sapiens (human) MCF7 cells assessed as cell viability at 12.5 ug/ml after 48 hr by MTT assay relative to control; type: functional; conditions: MCF7, 48 h, read-out: Activity
[14] = test system: MCF7; assay: Cytotoxicity against Homo sapiens (human) MCF7 cells assessed as cell viability at 6.25 ug/ml after 48 hr by MTT assay relative to control; type: functional; conditions: MCF7, 48 h, read-out: Activity
[15] = test system: MCF7; assay: Cytotoxicity against Homo sapiens (human) MCF7 cells assessed as cell viability at 50 ug/ml after 48 hr by MTT assay relative to control; type: functional; conditions: MCF7, 48 h, read-out: Activity
[16] = test system: MCF7; assay: Cytotoxicity against Homo sapiens (human) MCF7 cells assessed as cell viability at 25 ug/ml after 48 hr by MTT assay relative to control; type: functional; conditions: MCF7, 48 h, read-out: Activity
[17] = Cytotoxicity against Homo sapiens (human) HCT cells assessed as cell viability at 3.125 ug/ml after 48 hr by MTT assay relative to control; type: functional; conditions: read-out: Activity
[18] = Cytotoxicity against Homo sapiens (human) HCT cells assessed as cell viability at 12.5 ug/ml after 48 hr by MTT assay relative to control; type: functional; conditions: read-out: Activity
[19] = Cytotoxicity against Homo sapiens (human) HCT cells assessed as cell viability at 25 ug/ml after 48 hr by MTT assay relative to control; type: functional; conditions: read-out: Activity
[20] = Cytotoxicity against Homo sapiens (human) HCT cells assessed as cell viability at 50 ug/ml after 48 hr by MTT assay relative to control; type: functional; conditions: read-out: Activity
[21] = test system: MCF7; assay: Cytotoxicity against Homo sapiens (human) MCF7 cells after 48 hr by MTT assay; type: functional, cell-based; conditions: MCF7, 48 h
[22] = Homo sapiens, HepG2, 48 h, read-out: IC50

| Structure (SMILES) | viability at 1.56 µg/mL [2] | viability at 3.125 µg/mL [3] | viability at 6.25 µg/mL [4] | viability at 12.5 µg/mL [5] | viability at 25 µg/mL [6] | viability at 50 µg/mL [7] | IC50 [8] | viability at 1.56 µg/mL [9] | viability at 6.25 µg/mL [10] | viability at 1.56 µg/mL [11] | viability at 3.125 µg/mL [12] | viability at 12.5 µg/mL [13] | viability at 6.25 µg/mL [14] | viability at 50 µg/mL [15] | viability at 25 µg/mL [16] | viability at 3.125 µg/mL [17] | viability at 12.5 µg/mL [18] | viability at 25 µg/mL [19] | viability at 50 µg/mL [20] | IC50 [21] | further results |
| --- | --- | --- | --- | --- | --- | --- | --- | --- | --- | --- | --- | --- | --- | --- | --- | --- | --- | --- | --- | --- | --- |
| N#CC1=C(N)Oc2c(ccc3cccnc23)C1c1ccc(Cl)cc1 (centres undefined) | 79.6% | 68.5% | 68.2% | 63.5% | 57.2% | 52.8% | 24 µg/mL (≈ 71.9 µM) | 100% | 76.8% | 100% | 91.6% | 72.9% | 82.5% | 26.8% | 49.8% | 92.6% | 67.4% | 48.2% | 27.4% | 24.9 µg/mL (≈ 74.6 µM) | IC50 [1, 22]: > 50 µg/mL |
| N#CC1=C(N)Oc2c(ccc3cccnc23)C1c1ccc(Br)cc1 (centres undefined) | 100% | 100% | 100% | 98.3% | 96.3% | 91.8% | 43.7 µg/mL (≈ 116 µM) | 100% | 97.8% | 94.8% | 83.9% | 70% | 75.7% | 39.1% | 58.9% | 100% | 91.2% | 78.4% | 42.4% | 34.8 µg/mL (≈ 92 µM) | IC50 ([1]; hepg2): Not Active |
| Cc1ccc2ccc3c(c2n1)OC(N)=C(C#N)C3c1ccc(Cl)cc1 (centres undefined) | 51.9% | 43% | 37.6% | 35.6% | 33.7% | 23.1% | 15.8 µg/mL (≈ 45.4 µM) | 94% | 66.8% | 100% | 87% | 71.4% | 78.2% | 28% | 58.2% | 79% | 55.6% | 35.8% | 27.6% | 27.9 µg/mL (≈ 80.2 µM) | IC50 [1, 22]: 1.8 µg/mL (≈ 5.18 µM) |
| Cc1ccc2ccc3c(c2n1)OC(N)=C(C#N)C3c1ccc(Br)cc1 (centres undefined) | 77.5% | 64% | 44.9% | 39.6% | 29.3% | 22% | 22.8 µg/mL (≈ 58.1 µM) | 100% | 66.6% | 93.9% | 82.3% | 71.8% | 75.2% | 41.2% | 62.3% | 88% | 58.2% | 48.8% | 36.6% | 38.9 µg/mL (≈ 99.2 µM) | IC50 [1, 22]: 5.5 µg/mL (≈ 14 µM) |
| N#CC1=C(/N=C/c2ccccc2)Oc2c(ccc3cccnc23)C1c1ccc(Cl)cc1 (centres undefined) | 56.1% | 48.9% | 42.5% | 37.9% | 31.4% | 18.6% | 0.6 µg/mL (≈ 1.42 µM) | 38.5% | 19.4% | 55% | 48.3% | 37.2% | 40.8% | 26.5% | 33.3% | 30.2% | 14.8% | 11.6% | 9.13% | 2.8 µg/mL (≈ 6.64 µM) | IC50 [1, 22]: 2.8 µg/mL (≈ 6.64 µM) |
| CC(=O)NC1=C(C#N)C(c2ccc(Cl)cc2)c2ccc3ccc(C)nc3c2O1 (centres undefined) | 100% | 89.7% | 78.6% | 60.2% | 35.9% | 23.8% | 14.6 µg/mL (≈ 37.5 µM) | 96.4% | 77.5% | 96.3% | 86.5% | 68.7% | 76.8% | 46.2% | 54% | 85.2% | 53.3% | 42.5% | 22% | 38.6 µg/mL (≈ 99 µM) | IC50 [1, 22]: 17.8 µg/mL (≈ 45.7 µM) |
| CC(=O)NC1=C(C#N)C(c2ccc(Br)cc2)c2ccc3ccc(C)nc3c2O1 (centres undefined) | 98.8% | 90.7% | 81.6% | 68.6% | 51.2% | 32.6% | 21.3 µg/mL (≈ 49 µM) | 99.8% | 86.8% | 94.8% | 79.9% | 51.2% | 65.8% | 23.4% | 32.1% | 95.1% | 71.8% | 44.5% | 22.5% | 13.5 µg/mL (≈ 31.1 µM) | IC50 [1, 22]: 26.5 µg/mL (≈ 61 µM) |
| Nc1ncnc2c1C(c1ccc(Cl)cc1)c1ccc3cccnc3c1O2 (centres undefined) | 94.4% | 90.4% | 83.3% | 73.3% | 67.6% | 64.3% | 19.2 µg/mL (≈ 53.2 µM) | 83.1% | 74.6% | 100% | 94.5% | 75.8% | 81.2% | 45.4% | 68.8% | 78.6% | 62.1% | 42% | 26.4% | 44.6 µg/mL (≈ 124 µM) | IC50 [1, 22]: > 50 µg/mL |
| Cc1ccc2ccc3c(c2n1)Oc1ncnc(N)c1C3c1ccc(Cl)cc1 (centres undefined) | 68.3% | 60.2% | 50.8% | 43.7% | 37% | 28.3% | 26.4 µg/mL (≈ 70.4 µM) | 100% | 90.5% | 100% | 97.3% | 89.2% | 94.5% | 70.2% | 81.7% | 98.8% | 78.9% | 51.1% | 41.6% | > 50 µg/mL | IC50 [1, 22]: 6.3 µg/mL (≈ 16.8 µM) |
